Results from patent US5045531A, “Wound treatment employing biologically active ion channel forming peptides and proteins” (Magainin Sciences Inc., priority 1989, dated 1991).
No end group written: not given here.

Legend:
[1] = tested on: polyvinylchloride sponge disc implants (wound healing); experiment: Wound breaking strength of rejoined sponge disc halves implanted in rats; format: in vivo, rat; conditions: at seven days, control group 440 g
Source text: (§1) Twenty-two male rats weighing between 300 g and 325 g were anesthetized, after which their backs and abdomens were shaved and washed with 70% ethanol. Three modified polyvinylchloride sponge discs 2 mm thick and 15 mm in diameter were implanted in each rat abdominally in subcutaneous pockets made under the skin. Two of the implants were cut in half and rejoined before the implantation, and the remaining disc was sandwiched between two silicone discs which forced granulation tissue infiltration to occur from the periphery of the disc. A single 15 mm×15 mm square full excision wound was made on the back and the wound edges tattooed.
(§2) The rats were then divided into four groups. A first, or control, group of four rats received sham injections daily. A second group of four rats received daily intramuscular injections of 10 mg of cortisone acetate. Cortisone is known to be an inhibitor of wound healing. A third group of seven rats received daily intramuscular injections of 0.3 mg of amide-terminated Magainin II. A fourth group of seven rats received daily intramuscular injections of 10 mg of cortisone acetate and 0.3 mg of Magainin II at separate sites. At seven days, rat weights were recorded, wound sizes measured, and the implants harvested. The staple which joined the two disc halves together was carefully removed and the breaking strength measured. Collagen content from the implant halves from each treatment group was measured by weighing the pepsin extracted native collagen. The sponge halves are homogenized in 0.5M ice-cold acetic acid containing 0.1 mg of pepsin per ml. The homogenate was stirred for 24 hours at 4° C., centrifuged, and supernatants saved. The native solubilized collagen was isolated by adding sodium chloride to 10 % w/v. The salt precipitate was collected by centrifugation (10,000× g for 10 min.) and then taken up in 145 mM potassium phosphate buffer pH7.6, exhaustively dialyzed against 1 mM HCl, lyophilized and its dry weight recorded. Confirmation of collagen purity was made by SDS polyacrylamide gel electrophoresis. […]

[2] = tested on: polyvinylchloride sponge disc implants (wound healing); experiment: Collagen content of subcutaneous polyvinylchloride sponge disc implants in rats (pepsin extracted native collagen); format: in vivo, rat; conditions: at seven days, control group 3.43 mg/sponge
Source text: as §1, §2

[3] = tested on: full excision wound; experiment: Wound contraction of 15 mm x 15 mm square full excision wound on the back of rats; format: in vivo, rat; conditions: for average wound contraction: at seven days, control group 67%
Source text: as §1
The rats were then divided into four groups. A first, or control, group of four rats received sham injections daily. A second group of four rats received daily intramuscular injections of 10 mg of cortisone acetate. Cortisone is known to be an inhibitor of wound healing. A third group of seven rats received daily intramuscular injections of 0.3 mg of amide-terminated Magainin II. A fourth group of seven rats received daily intramuscular injections of 10 mg of cortisone acetate and 0.3 mg of Magainin II at separate sites. At seven days, rat weights were recorded, wound sizes measured, and the implants harvested. The staple which joined the two disc halves together was carefully removed and the breaking strength measured. Collagen content from the implant halves from each treatment group was measured by weighing the pepsin extracted native collagen. The sponge halves are homogenized in 0.5M ice-cold acetic acid containing 0.1 mg of pepsin per ml. The homogenate was stirred for 24 hours at 4° C., centrifuged, and supernatants saved. The native solubilized collagen was isolated by adding sodium chloride to 10 % w/v. The salt precipitate was collected by centrifugation (10,000× g for 10 min.) and then taken up in 145 mM potassium phosphate buffer pH7.6, exhaustively dialyzed against 1 mM HCl, lyophilized and its dry weight recorded. Confirmation of collagen purity was made by SDS polyacrylamide gel electrophoresis. Pepsin digestion extracts only native collagen, needed for the formation of collagen fibers. The accumulations of collagen in the early stages of healing are responsible for gain in wound tensile strength. Collagen content from the implants taken from the group treated with cortisone acetate alone averged 0.82 mg/sponge, as compared with 3.43 mg/sponge for the control group.

[4] = tested on: cortisone inhibition of wound healing; conditions: antagonism of cortisone-inhibited wound healing; cited from earlier work
[5] = cortisone acetate alone, 10 mg daily intramuscular
[6] = 0.3 mg Magainin II plus 10 mg cortisone acetate daily intramuscular at separate sites
[7] = Magainin II alone, 0.3 mg daily intramuscular

Compound: CC(=O)OCC(=O)[C@@]1(O)CC[C@H]2[C@@H]3CCC4=CC(=O)CC[C@]4(C)[C@H]3C(=O)C[C@@]21C [cortisone acetate]
- average wound breaking strength [1, 5]: 195 g
- average collagen content [2, 5]: 0.82 mg/sponge
- average wound contraction [3, 5]: 28%

Compound: growth hormone: other antagonist of cortisone inhibition of wound healing
- restoring connective tissue deposition [4]: effective in restoring connective tissue deposition
- restoring wound contraction [4]: ineffective in restoring wound contraction

Compound: GIGKFLHSAKKFGKAFVGEIMNS-NH2 [Magainin II]
- average wound breaking strength [1, 6]: 320 g
- average wound breaking strength [1, 7]: 415 g
- average collagen content [2, 6]: 3.20 mg/sponge
- average collagen content [2, 7]: 3.82 mg/sponge
- average wound contraction [3, 6]: 53%
- average wound contraction [3, 7]: 65%
- effect on cortisone inhibition of wound healing (collagen deposition and wound contraction) ([3]; rats given cortisone acetate and Magainin II, conclusion in words): antagonistic of cortisone inhibition of wound healing

Compound: Vitamin A
- restoring connective tissue deposition [4]: effective in restoring connective tissue deposition
- restoring wound contraction [4]: ineffective in restoring wound contraction
